# Source: ChEMBL document CHEMBL1201862, “PubChem BioAssay data set” (2004)
# Activity calls are given as the source filed them.
# Key:
# Paired box protein Pax-8 = Paired box protein Pax-8 (Homo sapiens, UniProt Q06710); assay: inhibitors of PAX8-driven TPO luciferase reporter, dose response, RMG-I cells, cherry-pick (AID 687027); type: functional, cell-based;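 further: luciferase reporter driven by Pax8 target thyroperoxidase promoter measured by SteadyGlo luminescence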
# [1] = non-specific cell cytotoxicity, dose response, cytotoxicity control for PAX8 inhibitor project, plate reader, dry powder samples (AID 743021); type: functional, cell-based
# [2] = miR-122 activators in hepatoma reporter cells, dose response, cell-based, Huh7 psiCHECK-miR122, Renilla luciferase, cherry-picked (AID 651956); type: functional;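 further: huh7 hepatoma cells stably carrying a psiCHECK-2 miR-122 sensor plasmid; renilla luciferase signal reporting endogenous miR-122 activity after 48 h compound exposure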
# [3] = HEK293T cytotoxicity, dose response, cytotoxicity control for miR-122 modulator project, cell-based, activator set, cherry-pick (AID 720690); type: functional;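 further: HEK293T human cells scored for general mammalian cytotoxicity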
# [4] = PAX2 cell-based inhibition, dose response, selectivity assay for PAX8 inhibitor project, plate reader, dry powder samples (AID 743048); type: functional;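 further: HEK293 cells carrying a WT1 promoter luciferase reporter driven by expressed Pax2; potency is for inhibition of Pax2 driven reporter signal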
# [5] = P. falciparum Dd2 growth inhibitors, dose response, SYBR Green, cherry-picked samples (AID 1159567); type: functional, cell-based
# [6] = P. falciparum ATP4 D1247Y mutant growth inhibitors, dose response, NITD609-resistant line, SYBR Green, dry powder (AID 1159571); type: functional, cell-based;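 further: parasites synchronized at ring stage by sorbitol before testing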
# [7] = P. falciparum 3D7-ScDHODH growth inhibitors, dose response, SYBR Green, dry powder samples (AID 1159570); type: functional, cell-based;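 further: parasite growth measured after 72 hours of compound exposure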
# [8] = HepG2 cell cytotoxicity, dose response, cytotoxicity control, plate reader, dry powder samples (AID 1159569); type: functional, cell-based;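 further: inhibitor potency with signal falling toward the positive control level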
# [9] = P. falciparum Dd2 growth inhibitors, dose response, SYBR Green, dry powder samples (AID 1159566); type: functional, cell-based;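 further: potency for growth inhibition with lower SYBR green DNA signal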
# [10] = HepG2 cell cytotoxicity, dose response, cytotoxicity control, cherry-picked samples (AID 1159577); type: functional, cell-based
# [11] = PAX5 activity inhibitors, dose response, selectivity assay for PAX8 inhibitor project, cell-based, plate reader, dry powder samples (AID 743047); type: functional;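 further: HEK293 cells carrying a Pax5 driven CD19 promoter luciferase reporter; potency of inhibitors that lower reporter luminescence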
# [12] = cytotoxicity in COV434 cells, dose response, cytotoxicity control for PAX8 inhibitor project, cell-based, plate reader, dry powder, SA7 (AID 743145); type: functional
# [13] = A2780 ovarian cancer cell cytotoxicity, dose response, cytotoxicity control, plate reader, dry powder samples (AID 743046); type: functional, cell-based
# [14] = cytotoxicity in OVCAR8 ovarian cancer cells, dose response, PAX8 project, cell-based, plate reader, dry powder samples (AID 743197); type: functional; details: OVCAR-8
# [15] = NIH:OVCAR-3 ovarian cancer cell cytotoxicity, dose response, PAX8 inhibitor project, plate reader, dry powder samples (AID 743044); type: functional, cell-based
# [16] = HIV Env cell-cell fusion inhibitors, dose response, HIV entry, plate reader, dry powder (AID 687023); type: functional, cell-based
# [17] = ZM109 Env clade C HIV-1 fusion inhibitors, dose response, HeLa effector, CEM target cells, luciferase, cherry-pick (AID 652058); type: functional, cell-based
# [18] = inhibitors of HIV Env-driven cell fusion, dose response, cherry-pick (AID 652057); type: functional, cell-based
# [19] = molecular target: RNA-editing ligase 1, mitochondrial (Trypanosoma brucei brucei, UniProt P86926); assay: TbREL1 ligase inhibitors, dose response, biochemical, fluorescence, Trypanosoma brucei (AID 1117295); type: functional
# Sequence of RNA-editing ligase 1, mitochondrial (P86926 whole entry): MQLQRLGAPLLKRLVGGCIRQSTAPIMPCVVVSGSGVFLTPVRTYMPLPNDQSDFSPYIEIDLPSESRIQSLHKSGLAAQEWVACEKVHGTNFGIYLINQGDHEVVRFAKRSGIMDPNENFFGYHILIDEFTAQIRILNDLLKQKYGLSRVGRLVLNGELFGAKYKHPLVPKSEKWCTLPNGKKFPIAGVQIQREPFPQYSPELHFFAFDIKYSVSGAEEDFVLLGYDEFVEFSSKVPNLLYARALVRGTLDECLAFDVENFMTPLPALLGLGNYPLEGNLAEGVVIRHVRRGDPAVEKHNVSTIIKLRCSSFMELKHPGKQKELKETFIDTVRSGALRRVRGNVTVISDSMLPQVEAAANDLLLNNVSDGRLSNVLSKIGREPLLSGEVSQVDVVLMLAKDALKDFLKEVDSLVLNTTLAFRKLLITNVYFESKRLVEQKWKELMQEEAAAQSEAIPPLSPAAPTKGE
# [20] = Glucagon-like peptide 1 release potency, NCI-H716 cell line, dose-response, half-maximal inhibitory concentration (AID 1117344); type: functional, cell-based
# Bcl-2-related protein A1 = molecular target: T1, Bcl-2-related protein A1 (Mus musculus, UniProt Q07440); type: functional;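 further: confirmatory dose–response counterscreen on Bfl-1, used to check hits from a UBC13 polyubiquitin inhibitor campaign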
# T1 sequence (Q07440 whole entry): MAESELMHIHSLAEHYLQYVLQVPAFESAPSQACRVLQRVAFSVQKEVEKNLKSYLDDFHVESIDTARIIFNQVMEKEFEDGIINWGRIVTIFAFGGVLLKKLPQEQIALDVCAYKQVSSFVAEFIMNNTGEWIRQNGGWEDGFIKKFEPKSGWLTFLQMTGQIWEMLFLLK
# [21] = cytotoxicity in HPDE-C7 cells, cell-based, fluorescence, HTS (AID 430); type: functional; details: Homo sapiens
# [22] = molecular target: T2, Ubiquitin-conjugating enzyme E2 N (Homo sapiens, UniProt P61088); type: functional
# T2 sequence (P61088 whole entry): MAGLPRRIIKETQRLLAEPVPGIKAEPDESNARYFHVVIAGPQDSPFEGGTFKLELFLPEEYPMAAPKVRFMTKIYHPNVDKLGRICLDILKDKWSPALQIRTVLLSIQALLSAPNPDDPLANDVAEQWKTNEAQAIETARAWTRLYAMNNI
# [23] = molecular target: T2, Ubiquitin-conjugating enzyme E2 N; type: functional; remark: listed apart in the source
# NADPH oxidase 1 = molecular target: T3, NADPH oxidase 1 (Homo sapiens, UniProt Q9Y5S8); type: functional, cell-based;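 further: Cell-based assay with luminescence read-out, IC50 derived from inhibitor dose-response curves; intracellular ROS from endogenous NOX1 in intact HT29 colon cancer cells; potency of inhibitors that lower the ROS luminescence signal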
# T3 sequence (Q9Y5S8 whole entry): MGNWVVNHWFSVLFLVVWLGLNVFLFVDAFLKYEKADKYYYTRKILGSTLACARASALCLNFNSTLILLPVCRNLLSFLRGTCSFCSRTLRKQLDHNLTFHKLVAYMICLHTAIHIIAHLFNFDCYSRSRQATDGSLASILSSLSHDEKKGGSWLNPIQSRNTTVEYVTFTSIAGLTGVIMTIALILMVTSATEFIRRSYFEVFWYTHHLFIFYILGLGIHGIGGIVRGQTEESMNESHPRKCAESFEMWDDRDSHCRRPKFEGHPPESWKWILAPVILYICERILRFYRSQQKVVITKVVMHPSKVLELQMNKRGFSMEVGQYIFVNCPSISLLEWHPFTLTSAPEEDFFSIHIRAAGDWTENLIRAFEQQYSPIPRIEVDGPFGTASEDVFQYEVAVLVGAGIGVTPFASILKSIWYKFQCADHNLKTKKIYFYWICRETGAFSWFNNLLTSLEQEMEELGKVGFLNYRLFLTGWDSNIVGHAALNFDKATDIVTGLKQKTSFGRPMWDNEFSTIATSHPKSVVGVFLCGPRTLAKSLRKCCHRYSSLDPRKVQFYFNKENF
# [24] = half-maximal inhibitory concentration for glucagon-like peptide-1 release, STC-1 cell line, dose-response (AID 1117345); type: functional, cell-based
# [25] = cytotoxicity in KRAS-transformed pancreatic duct cells, primary screen, cell-based, fluorescence, HTS (AID 431); type: functional; details: Homo sapiens;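 further: cell line used: HPDE-C7K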
# Sequence of Paired box protein Pax-8 (Q06710 whole entry): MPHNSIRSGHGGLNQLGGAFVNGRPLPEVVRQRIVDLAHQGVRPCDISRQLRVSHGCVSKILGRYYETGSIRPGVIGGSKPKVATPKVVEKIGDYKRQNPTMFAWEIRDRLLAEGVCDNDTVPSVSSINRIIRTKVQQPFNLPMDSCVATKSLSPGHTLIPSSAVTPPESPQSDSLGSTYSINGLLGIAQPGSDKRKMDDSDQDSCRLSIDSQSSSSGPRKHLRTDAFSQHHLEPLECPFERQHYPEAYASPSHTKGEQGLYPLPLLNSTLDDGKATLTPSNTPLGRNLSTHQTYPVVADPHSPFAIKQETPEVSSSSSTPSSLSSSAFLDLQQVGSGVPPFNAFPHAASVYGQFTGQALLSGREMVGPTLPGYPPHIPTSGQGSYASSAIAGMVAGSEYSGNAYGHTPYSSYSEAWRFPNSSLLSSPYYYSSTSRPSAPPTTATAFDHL
structure (smiles),measurement,setting,value
Nc1nc(N)c2c(ccc3c2ccn3Cc2cccc([N+](=O)[O-])c2)n1,AC50,Paired box protein Pax-8,1.5 µM (active)
same,AC50,[1],20.3 µM (active)
C[C@@H]1CN([C@@H](C)CO)C(=O)Cc2cc(NC(=O)C3CCCCC3)ccc2O[C@H]1CN(C)Cc1ccc(-c2ccccc2)cc1,AC50,[2],14.3 µM (active)
same,AC50,[3],16.8 µM (active)
COc1ccccc1C#Cc1ccc([C@@H]2[C@@H](C#N)N(C(=O)C3CCCCC3)[C@H]2CO)cc1,AC50,[4],31.9 µM (active)
same,AC50,[5],1.37 µM (active)
same,AC50,[6],1.14 µM (active)
same,AC50,[7],0.689 µM (active)
same,AC50,[8],21.8 µM (active)
same,AC50,Paired box protein Pax-8,6.05 µM (active)
same,AC50,[9],0.562 µM (active)
same,AC50,[10],> 39 µM (inactive)
same,AC50,[11],24.2 µM (active)
same,AC50,[12],> 70 µM (inactive)
Cc1noc(C)c1S(=O)(=O)N(C)C[C@H]1OCCCC[C@@H](C)Oc2ccc(NS(=O)(=O)c3ccc(Cl)cc3)cc2C(=O)N([C@@H](C)CO)C[C@@H]1C,AC50,Paired box protein Pax-8,10.5 µM (active)
same,AC50,[13],12.1 µM (active)
same,AC50,[14],> 70 µM (inactive)
same,AC50,[15],46.2 µM (active)
Cc1ccc(S(=O)(=O)N(C)C[C@@H]2Oc3ccc(NS(=O)(=O)c4c(C)noc4C)cc3CC(=O)N([C@H](C)CO)C[C@@H]2C)cc1,AC50,[16],11.4 µM (active)
same,AC50,[17],5.38 µM (active)
same,AC50,[18],23.2 µM (active)
C[C@@H]1CN([C@@H](C)CO)C(=O)c2c(c3ccccc3n2C)-c2ccccc2CO[C@H]1CN(C)C(=O)Nc1cccc(Cl)c1Cl,AC50,[5],1.86 µM (active)
same,AC50,[6],2.21 µM (active)
same,AC50,[7],2.3 µM (active)
same,AC50,[8],27.4 µM (active)
same,AC50,[9],1.49 µM (active)
same,AC50,[10],> 39 µM (inactive)
COC(=O)C1=C(C)N(Cc2ccccc2C(F)(F)F)C(NCc2ccc(C(F)(F)F)cc2)=NC1c1ccc(C(F)(F)F)cc1 (stereo unspecified),IC50,[19],> 96.6 µM (inactive)
OCCN1CCN(CCCN2c3ccccc3Sc3ccc(Cl)cc32)CC1 [PERPHENAZINE],IC50,[20],7.37 µM (inactive)
same,IC50,Bcl-2-related protein A1,> 20 µM (inactive)
same,EC50,[21],10.4 µM (active)
same,IC50,[22],13.4 µM (active)
same,IC50,[23],16.2 µM (active)
same,IC50,NADPH oxidase 1,> 17 µM (not active)
same,IC50,[24],15.5 µM (inactive)
same,EC50,[25],10.5 µM (active)
